Experimental data as given in the CheMixHub viscosity set.
Where “and” joins values, the source holds several entries; their conditions need not be identical. Equal values may be shown once. ± gives the uncertainty stated by the source.

Assay: xn = mol fraction of the nth substance listed

Cc1ccccc1C + c1ccccc1
viscosity [mPa·s]
Conditions	293.15 K	303.15 K	308.15 K	313.15 K	318.15 K	323.15 K
101 kPa, x2 = 0.1	–	0.657 ± 0.004	0.622 ± 0.004	0.594 ± 0.004	0.572 ± 0.004	–
101 kPa, x2 = 0.2	–	0.665 ± 0.004	0.631 ± 0.004	0.597 ± 0.004	0.573 ± 0.004	–
101 kPa, x2 = 0.4	–	0.69 ± 0.005	0.668 ± 0.005	0.599 ± 0.004	0.574 ± 0.004	–
101 kPa, x2 = 0.6	–	0.652 ± 0.004	0.623 ± 0.004	0.592 ± 0.004	0.55 ± 0.004	–
101 kPa, x2 = 0.802	–	0.645 ± 0.004	0.61 ± 0.004	0.577 ± 0.004	0.552 ± 0.004	–
101 kPa, x2 = 0.902	–	0.67 ± 0.004	0.641 ± 0.004	0.623 ± 0.004	0.587 ± 0.004	–
101.33 kPa, x2 = 0.1	–	0.657 ± 0.07	0.622 ± 0.066	0.594 ± 0.064	0.572 ± 0.062	–
101.33 kPa, x2 = 0.2	–	0.665 ± 0.07	0.631 ± 0.067	0.597 ± 0.064	0.573 ± 0.062	–
101.33 kPa, x2 = 0.2114	0.749 ± 0.0065	0.657 ± 0.0058	–	0.583 ± 0.0053	–	0.519 ± 0.0048
101.33 kPa, x2 = 0.4	–	0.69 ± 0.072	0.668 ± 0.07	0.599 ± 0.064	0.574 ± 0.062	–
101.33 kPa, x2 = 0.4129	0.71 ± 0.0062	0.625 ± 0.0056	–	0.554 ± 0.005	–	0.493 ± 0.0046
101.33 kPa, x2 = 0.5938	0.685 ± 0.0061	0.601 ± 0.0054	–	0.531 ± 0.0049	–	0.474 ± 0.0044
101.33 kPa, x2 = 0.6	–	0.652 ± 0.069	0.623 ± 0.067	0.592 ± 0.064	0.55 ± 0.06	–
101.33 kPa, x2 = 0.7195	0.669 ± 0.0059	0.585 ± 0.0053	–	0.517 ± 0.0048	–	0.461 ± 0.0043
101.33 kPa, x2 = 0.802	–	0.645 ± 0.068	0.61 ± 0.065	0.577 ± 0.063	0.552 ± 0.06	–
101.33 kPa, x2 = 0.8514	0.658 ± 0.0059	0.575 ± 0.0052	–	0.506 ± 0.0047	–	0.45 ± 0.0043
101.33 kPa, x2 = 0.902	–	0.67 ± 0.071	0.641 ± 0.068	0.623 ± 0.067	0.587 ± 0.063	–

NC(N)=O + CCCO
viscosity [mPa·s], 101 kPa
Conditions	298.15 K	303.15 K	308.15 K	313.15 K	318.15 K
x1 = 0.025	2.16 ± 0.055	1.896 ± 0.048	1.691 ± 0.043	1.502 ± 0.038	1.339 ± 0.034
x1 = 0.0385	2.24 ± 0.057	2.003 ± 0.051	1.768 ± 0.045	1.568 ± 0.04	1.401 ± 0.036

CCOC(=O)OCC + CCCCCCCC
298.15 K, 101.3 kPa
Conditions	viscosity [mPa·s]
x1 = 0.0224	0.517 ± 0.007
x1 = 0.0828	0.509 ± 0.006
x1 = 0.1137	0.508 ± 0.006
x1 = 0.1181	0.508 ± 0.006
x1 = 0.1535	0.508 ± 0.006
x1 = 0.1753	0.507 ± 0.006
x1 = 0.3802	0.529 ± 0.007
x1 = 0.4893	0.549 ± 0.007
x1 = 0.5834	0.572 ± 0.007
x1 = 0.6904	0.6 ± 0.008
x1 = 0.8119	0.645 ± 0.008
x1 = 0.8465	0.659 ± 0.008
x1 = 0.8953	0.681 ± 0.009
x1 = 0.9679	0.727 ± 0.009

O=C([O-])[C@H](O)[C@@H](O)[C@H](O)[C@H](O)CO.[Na+] + O
viscosity [mPa·s], 100 kPa
Conditions	298.15 K	308.15 K	318.15 K
x1 = 0.0004	0.8985 ± 0.011	0.7295 ± 0.009	0.6062 ± 0.0075
x1 = 0.0007	0.9101 ± 0.011	0.7386 ± 0.0091	0.6138 ± 0.0076
x1 = 0.001	0.9193 ± 0.011	0.7501 ± 0.0092	0.6218 ± 0.0077

CC(C)CCC[C@@H](C)[C@H]1CC[C@H]2[C@@H]3CC=C4C[C@@H](O)CC[C@]4(C)[C@H]3CC[C@]12C + c1ccccc1
viscosity [mPa·s], 101.33 kPa
Conditions	x1 = 0.00346	x1 = 0.00447	x1 = 0.00753	x1 = 0.008796	x1 = 0.01276	x1 = 0.01496	x1 = 0.01612	x1 = 0.01894	x1 = 0.02302
298 K	0.617 ± 0.008	0.624 ± 0.008	0.643 ± 0.008	0.651 ± 0.008	0.681 ± 0.009	0.698 ± 0.009	0.708 ± 0.009	0.733 ± 0.009	0.773 ± 0.009
303 K	0.574 ± 0.007	0.579 ± 0.007	0.598 ± 0.008	0.607 ± 0.008	0.633 ± 0.008	0.647 ± 0.008	0.657 ± 0.008	0.677 ± 0.008	0.714 ± 0.009
313 K	0.506 ± 0.007	0.509 ± 0.007	0.525 ± 0.007	0.529 ± 0.007	0.552 ± 0.007	0.565 ± 0.007	0.571 ± 0.007	0.588 ± 0.008	0.614 ± 0.008
323 K	0.448 ± 0.006	0.453 ± 0.006	0.466 ± 0.006	0.472 ± 0.006	0.489 ± 0.007	0.499 ± 0.007	0.504 ± 0.007	0.517 ± 0.007	0.541 ± 0.007

CCCCCCCCCCO + CO
viscosity [mPa·s], 101 kPa
Conditions	298.15 K	308.15 K	318.15 K
x2 = 0.05	10.38 ± 0.1	7.137 ± 0.07	5.136 ± 0.047
x2 = 0.1	9.75 ± 0.097	6.75 ± 0.065	4.899 ± 0.044
x2 = 0.15	9.096 ± 0.089	6.352 ± 0.061	4.649 ± 0.041
x2 = 0.2	8.429 ± 0.082	5.944 ± 0.057	4.39 ± 0.039
x2 = 0.25	7.757 ± 0.074	5.531 ± 0.052	4.121 ± 0.036
x2 = 0.3	7.086 ± 0.067	5.115 ± 0.048	3.847 ± 0.034
x2 = 0.35	6.425 ± 0.06	4.699 ± 0.044	3.567 ± 0.031
x2 = 0.4	5.779 ± 0.054	4.287 ± 0.039	3.285 ± 0.029
x2 = 0.45	5.154 ± 0.048	3.88 ± 0.035	3.003 ± 0.027
x2 = 0.5	4.554 ± 0.042	3.481 ± 0.031	2.721 ± 0.024
x2 = 0.55	3.984 ± 0.036	3.093 ± 0.027	2.443 ± 0.022
x2 = 0.6	3.448 ± 0.031	2.719 ± 0.024	2.171 ± 0.019
x2 = 0.65	2.947 ± 0.026	2.36 ± 0.02	1.905 ± 0.017
x2 = 0.7	2.485 ± 0.021	2.02 ± 0.017	1.649 ± 0.014
x2 = 0.75	2.063 ± 0.018	1.7 ± 0.014	1.405 ± 0.012
x2 = 0.8	1.681 ± 0.014	1.403 ± 0.012	1.174 ± 0.01
x2 = 0.85	1.34 ± 0.012	1.131 ± 0.01	0.958 ± 0.008
x2 = 0.9	1.038 ± 0.009	0.886 ± 0.008	0.76 ± 0.007
x2 = 0.95	0.776 ± 0.007	0.669 ± 0.006	0.582 ± 0.006

CCC#N + CCOC(C)=O
303.15 K, 101.33 kPa
Conditions	viscosity [mPa·s]
x1 = 0.1019	0.4034 ± 0.0035
x1 = 0.1916	0.4041 ± 0.0035
x1 = 0.2921	0.4038 ± 0.0035
x1 = 0.3979	0.4025 ± 0.0035
x1 = 0.4953	0.4012 ± 0.0035
x1 = 0.5954	0.3976 ± 0.0035
x1 = 0.6959	0.3954 ± 0.0035
x1 = 0.7981	0.3935 ± 0.0035
x1 = 0.9006	0.3915 ± 0.0035

CCCCCCCCCCCC + CCCCCCC
Conditions	viscosity
298 K, 101 kPa, x1 = 0.5	0.7879 ± 0.021 mPa·s and 0.7868 ± 0.021 mPa·s
298.15 K, 101.33 kPa, x2 = 0.1076	1.219 ± 0.015 mPa·s
298.15 K, 101.33 kPa, x2 = 0.2092	1.086 ± 0.014 mPa·s
298.15 K, 101.33 kPa, x2 = 0.3109	0.9598 ± 0.012 mPa·s
298.15 K, 101.33 kPa, x2 = 0.4064	0.8662 ± 0.011 mPa·s
298.15 K, 101.33 kPa, x2 = 0.5062	0.7707 ± 0.01 mPa·s
298.15 K, 101.33 kPa, x2 = 0.6081	0.6772 ± 0.009 mPa·s
298.15 K, 101.33 kPa, x2 = 0.7046	0.5964 ± 0.0081 mPa·s
298.15 K, 101.33 kPa, x2 = 0.8043	0.5157 ± 0.0072 mPa·s
298.15 K, 101.33 kPa, x2 = 0.9039	0.4454 ± 0.0065 mPa·s
318 K, 101 kPa, x1 = 0.5	0.6058 ± 0.016 mPa·s and 0.6054 ± 0.016 mPa·s

CCCCCCCCCCCC + C1CCCCC1
Conditions	viscosity [mPa·s]
297.78 K, 101.3 kPa, x1 = 0.4996	1.131 ± 0.014
298.13 K, 101.3 kPa, x1 = 0.7489	1.247 ± 0.016
298.15 K, 100 kPa, x2 = 0.2	1.263 ± 0.051
298.15 K, 100 kPa, x2 = 0.4	1.171 ± 0.047
298.15 K, 100 kPa, x2 = 0.6	1.071 ± 0.043
298.15 K, 100 kPa, x2 = 0.8	0.979 ± 0.039
298.15 K, 101.33 kPa, x1 = 0.0169	0.9114 ± 0.0077
298.15 K, 101.33 kPa, x2 = 0.1549	1.299 ± 0.011
298.15 K, 101.33 kPa, x2 = 0.2886	1.237 ± 0.01
298.15 K, 101.33 kPa, x2 = 0.3945	1.187 ± 0.0097
298.15 K, 101.33 kPa, x2 = 0.5031	1.138 ± 0.0094
298.15 K, 101.33 kPa, x2 = 0.5879	1.098 ± 0.0091
298.15 K, 101.33 kPa, x2 = 0.6636	1.048 ± 0.0087
298.15 K, 101.33 kPa, x2 = 0.7601	1.011 ± 0.0084
298.15 K, 101.33 kPa, x2 = 0.7983	0.9774 ± 0.0082
298.15 K, 101.33 kPa, x2 = 0.8536	0.9573 ± 0.008
298.15 K, 101.33 kPa, x2 = 0.8943	0.9433 ± 0.0079
298.15 K, 101.33 kPa, x2 = 0.941	0.9223 ± 0.0078
298.31 K, 101.3 kPa, x1 = 0.5001	1.121 ± 0.014
298.35 K, 101.3 kPa, x1 = 0.5001	1.116 ± 0.014
298.38 K, 101.3 kPa, x1 = 0.2501	0.9923 ± 0.017
298.43 K, 101.3 kPa, x1 = 0.2501	0.9883 ± 0.017
298.43 K, 101.3 kPa, x1 = 0.4996	1.114 ± 0.014
298.61 K, 101.3 kPa, x1 = 0.7489	1.232 ± 0.015
298.62 K, 101.3 kPa, x1 = 0.7489	1.232 ± 0.015
308.76 K, 101.3 kPa, x1 = 0.5001	0.9475 ± 0.011
308.86 K, 101.3 kPa, x1 = 0.5001	0.948 ± 0.011
323.15 K, 100 kPa, x2 = 0.2	0.8615 ± 0.035
323.15 K, 100 kPa, x2 = 0.4	0.8075 ± 0.032
323.15 K, 100 kPa, x2 = 0.6	0.7427 ± 0.03
323.15 K, 100 kPa, x2 = 0.8	0.6736 ± 0.027
